System: P12-Ichikawa
Assay: cell viability relative to DMSO control; higher = less cytotoxic
Settings: 48 h
Summary of the method: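 NOMO1 or SEM cells were plated at 500 cells/well and P12-Ichikawa cells at 1000 cells/well in 1536-well plates (5 μl), after each leukemia line had been adapted for at least four passages in each medium. Pin dosing delivered library compounds in DMSO at 11 threefold concentrations, 47 μM to 0.79 nM. CellTiter-Glo One luminescence was read after 48 h at 37°C. Viability is reported as a per-plate percentage of DMSO wells, with cell-free wells as background.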

[1] = HPLM + 10% dialyzed FBS, 0.000781 µM
[2] = HPLM + 10% dialyzed FBS, 0.00234 µM
[3] = HPLM + 10% dialyzed FBS, 0.00702 µM
[4] = HPLM + 10% dialyzed FBS, 0.0211 µM
[5] = HPLM + 10% dialyzed FBS, 0.0632 µM
[6] = HPLM + 10% dialyzed FBS, 0.19 µM
[7] = HPLM + 10% dialyzed FBS, 0.569 µM
[8] = HPLM + 10% dialyzed FBS, 1.71 µM
[9] = HPLM + 10% dialyzed FBS, 5.12 µM
[10] = HPLM + 10% dialyzed FBS, 15.4 µM
[11] = HPLM + 10% dialyzed FBS, 46.1 µM
[12] = RPMI 5 mM glucose + 10% FBS, 0.000781 µM
[13] = RPMI 5 mM glucose + 10% FBS, 0.00234 µM
[14] = RPMI 5 mM glucose + 10% FBS, 0.00702 µM
[15] = RPMI 5 mM glucose + 10% FBS, 0.0211 µM
[16] = RPMI 5 mM glucose + 10% FBS, 0.0632 µM
[17] = RPMI 5 mM glucose + 10% FBS, 0.19 µM
[18] = RPMI 5 mM glucose + 10% FBS, 0.569 µM
[19] = RPMI 5 mM glucose + 10% FBS, 1.71 µM
[20] = RPMI 5 mM glucose + 10% FBS, 5.12 µM
[21] = RPMI 5 mM glucose + 10% FBS, 15.4 µM
[22] = RPMI 5 mM glucose + 10% FBS, 46.1 µM
[23] = RPMI 5 mM glucose + 10% dialyzed FBS, 0.000781 µM
[24] = RPMI 5 mM glucose + 10% dialyzed FBS, 0.00234 µM
[25] = RPMI 5 mM glucose + 10% dialyzed FBS, 0.00702 µM
[26] = RPMI 5 mM glucose + 10% dialyzed FBS, 0.0211 µM
[27] = RPMI 5 mM glucose + 10% dialyzed FBS, 0.0632 µM
[28] = RPMI 5 mM glucose + 10% dialyzed FBS, 0.19 µM
[29] = RPMI 5 mM glucose + 10% dialyzed FBS, 0.569 µM
[30] = RPMI 5 mM glucose + 10% dialyzed FBS, 1.71 µM
[31] = RPMI 5 mM glucose + 10% dialyzed FBS, 5.12 µM
[32] = RPMI 5 mM glucose + 10% dialyzed FBS, 15.4 µM
[33] = RPMI 5 mM glucose + 10% dialyzed FBS, 46.1 µM

Structure (SMILES) | cell viability [1] [%] | cell viability [2] [%] | cell viability [3] [%] | cell viability [4] [%] | cell viability [5] [%] | cell viability [6] [%] | cell viability [7] [%] | cell viability [8] [%] | cell viability [9] [%] | cell viability [10] [%] | cell viability [11] [%] | cell viability [12] [%] | cell viability [13] [%] | cell viability [14] [%] | cell viability [15] [%] | cell viability [16] [%] | cell viability [17] [%] | cell viability [18] [%] | cell viability [19] [%] | cell viability [20] [%] | cell viability [21] [%] | cell viability [22] [%] | cell viability [23] [%] | cell viability [24] [%] | cell viability [25] [%] | cell viability [26] [%] | cell viability [27] [%] | cell viability [28] [%] | cell viability [29] [%] | cell viability [30] [%] | cell viability [31] [%] | cell viability [32] [%] | cell viability [33] [%]
C\C1=C(\C=C(C#N)/C(=O)N1)C2=C[N]3C=CN=C3C=C2 | 88.1 | 82.3 | 87.3 | 89.8 | 87.1 | 84.6 | 89.9 | 88.5 | 85.1 | 91.5 | 92.5 | 88.8 | 80.1 | 82.9 | 88 | 79.3 | 79.2 | 80 | 81.7 | 86.6 | 80.5 | 84.7 | 81.7 | 72.9 | 78.3 | 78.7 | 81.5 | 78.8 | 80.7 | 78.3 | 80.4 | 74.9 | 77.9
N[C@H](CSC(c1ccccc1)(c1ccccc1)c1ccccc1)C(=O)O | 107 | 112 | 121 | 129 | 108 | 114 | 117 | 120 | 115 | 114 | 108 | 97.6 | 112 | 115 | 124 | 116 | 122 | 120 | 119 | 125 | 124 | 131 | 90.9 | 116 | 122 | 116 | 118 | 112 | 115 | 121 | 127 | 121 | 116
C/C=C(/C)C(=O)O[C@H]1C(C)=C[C@]23C(=O)[C@@H](C=C(CO)[C@@H](O)[C@]12O)[C@H]1[C@@H](C[C@H]3C)C1(C)C | 111 | 122 | 106 | 99.1 | 96.8 | 90.6 | 87 | 97.2 | 97.3 | 79.7 | 81.4 | 122 | 131 | 99.8 | 87.9 | 79.7 | 79.2 | 82.3 | 82.4 | 78.2 | 77.8 | 74.9 | 116 | 122 | 101 | 94.6 | 89.9 | 81.6 | 79 | 82.6 | 86.7 | 81.1 | 70.6
C#C[C@]1(O)CC[C@H]2[C@@H]3CCc4cc(O)ccc4[C@H]3CC[C@@]21C | 102 | 98.3 | 95.9 | 97.4 | 95.7 | 102 | 89.5 | 97.3 | 95.8 | 75.3 | 47.2 | 98.3 | 95.6 | 89.4 | 93.6 | 92.3 | 94.3 | 96.7 | 83.7 | 89.1 | 67.7 | 42.6 | 87.5 | 86.7 | 88.9 | 92.3 | 93.3 | 92.4 | 95.6 | 85.6 | 81.8 | 72.5 | 58.3
CN(NC(=O)CC(=O)NN(C)C(=S)c1ccccc1)C(=S)c1ccccc1 | 90.7 | 88.6 | 91.7 | 88.1 | 58.8 | 31.4 | 4.03 | 3.29 | 3.87 | 4.02 | 38.3 | 75.8 | 86.9 | 86.6 | 90.8 | 56.8 | 24.1 | 2.71 | 2.73 | 3.65 | 3.06 | 42.1 | 92.4 | 89.9 | 102 | 101 | 58.4 | 20.1 | 3.2 | 2.92 | 3.18 | 3.13 | 31.3
CC(C)C[C@H](NC(=O)[C@H](CCc1ccccc1)NC(=O)CN1CCOCC1)C(=O)N[C@@H](Cc1ccccc1)C(=O)N[C@@H](CC(C)C)C(=O)[C@@]1(C)CO1 | 86.2 | 96.7 | 95.1 | 86.1 | 5.6 | 5.9 | 5.35 | 4.68 | 1.59 | -0.411 | -0.285 | 83.1 | 96.3 | 92.7 | 46.1 | 4.86 | 4.74 | 4.53 | 4.03 | 2.11 | -0.0452 | -0.307 | 78.8 | 94.4 | 91.2 | 54.1 | 5.27 | 4.96 | 4.93 | 3.8 | 1.93 | -0.204 | -0.46
S=P(N1CC1)(N1CC1)N1CC1 | 110 | 106 | 113 | 107 | 112 | 105 | 108 | 97.4 | 88.5 | 99.4 | 85.3 | 98.3 | 99 | 106 | 102 | 99.8 | 102 | 108 | 104 | 104 | 94.9 | 88.2 | 99.6 | 108 | 103 | 91.7 | 101 | 101 | 96.2 | 93.1 | 86.9 | 89.9 | 76.3

From the supplement of paper PMC11451515
